Results from patent publication US8653304B2, “2,3-dihydro-1H-indene-2-yl urea derivative and pharmaceutical application of same” (Toray Industries, Inc., priority 2009, dated 2014).

Tested on: hyperalgesia in Chung model
Test: Hyperalgesia in neuropathic pain model (Chung model), plantar test
Format: in vivo
Conditions: SD rat, Chung model day 15, oral 100 mg/kg, 90 minutes after administration; FIG. 3
From the text: The action of Compound (I) on hyperalgesia in pain models was studied. As the pain models, models partially modified from an inflammatory pain model (a carrageenin paw edema pain model) and neuropathic pain models (Bennett model and Chung model) described in documents (Anesth. Analg., 2009, Vol. 108, pp. 1680-1687; Pain, 1988, Vol. 33, pp. 87-107; and Pain, 1992, Vol. 50, pp. 355-363) were used.
The Bennett model was produced by lightly ligating the sciatic nerve in the left thigh of each Crl:CD (SD) rat (male, 6-week old, Charles River Laboratories Japan, Inc.) at 4 points with chromic catgut (4-0). Fourteen days after the Bennett model was produced, each test compound was orally administered, and plantar test was performed 90 minutes after the administration. The plantar test was carried out by measuring the pain threshold (sec) of the left footpad (model foot) using a plantar thermal stimulation device (Plantar test 7370, Ugo Basile) wherein the thermal stimulus intensity was set to 60. Each test compound was suspended in 0.5 w/v % methylcellulose (Wako Pure Chemical Industries, Ltd.) and the obtained solution was orally administered. Compound 46b described in the Examples was administered at a dose of 100 mg/kg, and gabapentin (Toronto Research Chemicals), which is an anticonvulsant, was administered as a comparative control agent at a dose of 100 mg/kg. […]

With COc1c(NC(=O)N[C@@H]2Cc3ccccc3[C@@H]2O)cc(C(C)(C)C)cc1[C@@H](O)C(F)(F)F [Compound 46b, 1-(5-tert-butyl-2-methoxy-3-((R)-2,2,2-trifluoro-1-hydroxyethyl)phenyl)-3-((1S,2R)-1-hydroxy-2,3-dihydro-1H-indene-2-yl)urea] the “pain threshold (sec), plantar test, compared to solvent-administered group” value was “significantly elevated”.
